# Results from patent US20230372313A1, “METHODS FOR REDUCING GLYCOSPHINGOLIPID CONCENTRATION IN BRAIN TISSUE AND METHODS OF TREATMENT OF NEURODEGENERATIVE DISEASES INVOLVING THE SAME” (GENZYME CORPORATION, priority 2020, published 2023).
# Where two headings read alike, the source gives them in different places.
# Test: Plasma pharmacokinetics of Compound 2 in PD participants (LC-MS/MS)
# Type: in vivo, human
# Experimental: Participants were randomised to 3 doses of once-daily orally administered Compound 2 or placebo, in sequential cohort design, and were followed up to 36 weeks (52 weeks for Japanese participants). Participants in the low-dose group received 4 mg of Compound 2 as a once daily oral dose; participants in the mid-dose group received 8 mg of Compound 2 a once daily oral dose; and participants in the high-dose group received 15 mg of Compound 2 a once daily oral dose.
# Analyses were based on all available data from participants who enrolled in part 1 of the trial and were randomised to receive either Compound 2 or placebo for up to 52 weeks for Japanese participants and 36 weeks for the ROW population. As part 1 was an exploratory, dose-escalation study, the sample size was not based on a statistical power calculation. Participants included in the primary safety analyses were those who were randomized and received at least one dose of Compound 2 or placebo. A data monitoring committee was responsible for overseeing the safety of patients and the risk/benefit ratio throughout the study. Duration of exposure to Compound 2 was different among the doses, as per the sequential cohort design, with the low- and high-dose cohorts commencing the study first and last, respectively. For pharmacokinetics, plasma parameters were calculated using noncompartmental methods, from plasma Compound 2 concentrations obtained after single dose administration. AUC0-24 and AUC0-48 were calculated using the trapezoidal method over a predefined time period of 24 hours or 48 hours, respectively. CLss/F was calculated using the following equation: CLss/F=Dose/AUCτ, where τ is the dosing interval. For pharmacodynamics, percent reduction of plasma or CSF GL-1 from baseline was calculated as (value−baseline)/baseline×100. Formal statistical testing was not conducted on MDS-UPDRS scale assessments.
# The secondary outcome was to evaluate the pharmacokinetic profile of Compound 2 in plasma and cerebrospinal fluid (CSF) over a 4-week period. Plasma pharmacokinetic parameters included maximum plasma concentration (Cmax), time to Cmax (tmax), and area under the plasma concentration versus time curve from 0 to 24 h (AUC0-24). All parameters were assessed at Week 0 and Week 4 after treatment. In addition, AUC0-48 was assessed at Week 0, trough plasma concentration observed just before treatment administration during repeated dosing (Ctrough) was assessed at Weeks 2, 4, and 8 (FIG. 3), and total systemic clearance from plasma at steady state (CLSS/F) was assessed at Week 4. Plasma samples were collected at 1 hour pre-dose and 1, 2, 4, 8, 24, and 48 hours postdose. Compound 2 concentration in plasma was determined using a liquid chromatography tandem mass spectrometry method with a lower limit of quantification of 0.500 ng/mL. CSF samples were collected by lumbar puncture during the screening period (within 14 days prior to randomisation) or on the day of randomisation, and at Week 4, within 2 to 4 hours postdose. Compound 2 concentration in CSF was determined using a liquid chromatography tandem mass spectrometry method with a lower limit of quantification of 0.100 ng/mL.
smiles,measurement,setting,value
"CC(C)(NC(=O)O[C@@H]1CN2CCC1CC2)c1csc(-c2ccc(F)cc2)n1 [Compound 2, (S)-quinuclidin-3-yl (2-(2-(4-fluorophenyl)thiazol-4-yl)propan-2-yl)carbamate]",increase of Compound 2 concentration in plasma with dose,"Japanese and ROW cohorts, 4, 8, 15 mg",close to dose-proportional manner
same,Tmax,"human, plasma, oral, plasma, Week 4, Japanese participants, across all doses tested, read-out: median tmax values",2.1 to 4.33 h
same,Tmax,"human, plasma, oral, plasma, Week 4, ROW participants, across all doses tested, read-out: median tmax values",1.96 to 3.55 h
same,Cmax at 4 weeks,"human, plasma, po, 4 mg, Week 4, Japan, Low 4 mg once daily oral, n = 3",56.3 ng/mL
same,AUC(0-t),"human, plasma, po, 4 mg, plasma, Day 1, Japan, Low 4 mg oral, n = 3, read-out: AUC0-24, Geometric mean",390 ng·h/mL
same,AUC(0-t),"human, plasma, po, 4 mg, plasma, Day 1, Japan, Low 4 mg oral, n = 3, read-out: AUC0-24, mean",393 ng·h/mL
same,AUC(0-t),"human, plasma, po, 4 mg, plasma, Day 1, Japan, Low 4 mg oral, n = 3, read-out: AUC0-48, Geometric mean",660 ng·h/mL
same,AUC(0-t),"human, plasma, po, 4 mg, plasma, Day 1, Japan, Low 4 mg oral, n = 3, read-out: AUC0-48, mean",661 ng·h/mL
same,Cmax,"human, plasma, po, 4 mg, plasma, Day 1, Japan, Low 4 mg oral, n = 3, read-out: Cmax, Geometric mean",21.7 ng/mL
same,Cmax,"human, plasma, po, 4 mg, plasma, Day 1, Japan, Low 4 mg oral, n = 3, read-out: Cmax, mean",21.8 ng/mL
same,Tmax,"human, plasma, po, 4 mg, plasma, Day 1, Japan, Low 4 mg oral, n = 3, read-out: tmax, median",4.33 h
same,AUC(0-t),"human, plasma, po, 4 mg, plasma, Day 1, ROW, Low 4 mg oral, n = 4, read-out: AUC0-24, Geometric mean",249 ng·h/mL
same,AUC(0-t),"human, plasma, po, 4 mg, plasma, Day 1, ROW, Low 4 mg oral, n = 4, read-out: AUC0-24, mean",255 ng·h/mL
same,AUC(0-t),"human, plasma, po, 4 mg, plasma, Day 1, ROW, Low 4 mg oral, n = 4, read-out: AUC0-48, Geometric mean",419 ng·h/mL
same,AUC(0-t),"human, plasma, po, 4 mg, plasma, Day 1, ROW, Low 4 mg oral, n = 4, read-out: AUC0-48, mean",431 ng·h/mL
same,Cmax,"human, plasma, po, 4 mg, plasma, Day 1, ROW, Low 4 mg oral, n = 4, read-out: Cmax, Geometric mean",13.6 ng/mL
same,Cmax,"human, plasma, po, 4 mg, plasma, Day 1, ROW, Low 4 mg oral, n = 4, read-out: Cmax, mean",13.8 ng/mL
same,Tmax,"human, plasma, po, 4 mg, plasma, Day 1, ROW, Low 4 mg oral, n = 4, read-out: tmax, median",4.07 h
same,AUC(0-t),"human, plasma, po, 4 mg, plasma, Week 4, Japan, Low 4 mg once daily oral, n = 1, read-out: AUC0-24, Geometric mean",1130 ng·h/mL
same,AUC(0-t),"human, plasma, po, 4 mg, plasma, Week 4, Japan, Low 4 mg once daily oral, n = 1, read-out: AUC0-24, mean",1130 ng·h/mL
same,Cmax,"human, plasma, po, 4 mg, plasma, Week 4, Japan, Low 4 mg once daily oral, n = 3, read-out: Cmax, Geometric mean",56.2 ng/mL
same,Tmax,"human, plasma, po, 4 mg, plasma, Week 4, Japan, Low 4 mg once daily oral, n = 3, read-out: tmax, median",4.33 h
same,AUC(0-t),"human, plasma, po, 4 mg, plasma, Week 4, ROW, Low 4 mg once daily oral, n = 4, read-out: AUC0-24, Geometric mean",763 ng·h/mL
same,AUC(0-t),"human, plasma, po, 4 mg, plasma, Week 4, ROW, Low 4 mg once daily oral, n = 4, read-out: AUC0-24, mean",766 ng·h/mL
same,Cmax,"human, plasma, po, 4 mg, plasma, Week 4, ROW, Low 4 mg once daily oral, n = 4, read-out: Cmax, Geometric mean",41 ng/mL
same,Cmax,"human, plasma, po, 4 mg, plasma, Week 4, ROW, Low 4 mg once daily oral, n = 4, read-out: Cmax, mean",41.6 ng/mL
same,Tmax,"human, plasma, po, 4 mg, plasma, Week 4, ROW, Low 4 mg once daily oral, n = 4, read-out: tmax, median",1.96 h
same,AUC(0-t),"human, plasma, po, 8 mg, plasma, Day 1, Japan, Mid 8 mg oral, n = 3, read-out: AUC0-24, Geometric mean",596 ng·h/mL
same,AUC(0-t),"human, plasma, po, 8 mg, plasma, Day 1, Japan, Mid 8 mg oral, n = 3, read-out: AUC0-24, mean",623 ng·h/mL
same,AUC(0-t),"human, plasma, po, 8 mg, plasma, Day 1, Japan, Mid 8 mg oral, n = 3, read-out: AUC0-48, Geometric mean",1070 ng·h/mL
same,AUC(0-t),"human, plasma, po, 8 mg, plasma, Day 1, Japan, Mid 8 mg oral, n = 3, read-out: AUC0-48, mean",1130 ng·h/mL
same,Cmax,"human, plasma, po, 8 mg, plasma, Day 1, Japan, Mid 8 mg oral, n = 3, read-out: Cmax, Geometric mean",29.9 ng/mL
same,Cmax,"human, plasma, po, 8 mg, plasma, Day 1, Japan, Mid 8 mg oral, n = 3, read-out: Cmax, mean",31.3 ng/mL
same,Tmax,"human, plasma, po, 8 mg, plasma, Day 1, Japan, Mid 8 mg oral, n = 3, read-out: tmax, median",4.02 h
same,AUC(0-t),"human, plasma, po, 8 mg, plasma, Day 1, ROW, Mid 8 mg oral, n = 5, read-out: AUC0-24, Geometric mean",422 ng·h/mL
same,AUC(0-t),"human, plasma, po, 8 mg, plasma, Day 1, ROW, Mid 8 mg oral, n = 5, read-out: AUC0-24, mean",457 ng·h/mL
same,AUC(0-t),"human, plasma, po, 8 mg, plasma, Day 1, ROW, Mid 8 mg oral, n = 5, read-out: AUC0-48, Geometric mean",735 ng·h/mL
same,AUC(0-t),"human, plasma, po, 8 mg, plasma, Day 1, ROW, Mid 8 mg oral, n = 5, read-out: AUC0-48, mean",776 ng·h/mL
same,Cmax,"human, plasma, po, 8 mg, plasma, Day 1, ROW, Mid 8 mg oral, n = 5, read-out: Cmax, Geometric mean",23.8 ng/mL
same,Cmax,"human, plasma, po, 8 mg, plasma, Day 1, ROW, Mid 8 mg oral, n = 5, read-out: Cmax, mean",26.3 ng/mL
same,Tmax,"human, plasma, po, 8 mg, plasma, Day 1, ROW, Mid 8 mg oral, n = 5, read-out: tmax, median",4.17 h
same,AUC(0-t),"human, plasma, po, 8 mg, plasma, Week 4, Japan, Mid 8 mg once daily oral, n = 3, read-out: AUC0-24, Geometric mean",1620 ng·h/mL
same,AUC(0-t),"human, plasma, po, 8 mg, plasma, Week 4, Japan, Mid 8 mg once daily oral, n = 3, read-out: AUC0-24, mean",1650 ng·h/mL
same,Cmax,"human, plasma, po, 8 mg, plasma, Week 4, Japan, Mid 8 mg once daily oral, n = 3, read-out: Cmax, Geometric mean",82.8 ng/mL
same,Tmax,"human, plasma, po, 8 mg, plasma, Week 4, Japan, Mid 8 mg once daily oral, n = 3, read-out: tmax, median",2.12 h
same,AUC(0-t),"human, plasma, po, 8 mg, plasma, Week 4, ROW, Mid 8 mg once daily oral, n = 5, read-out: AUC0-24, Geometric mean",1490 ng·h/mL
same,AUC(0-t),"human, plasma, po, 8 mg, plasma, Week 4, ROW, Mid 8 mg once daily oral, n = 5, read-out: AUC0-24, mean",1510 ng·h/mL
same,Cmax,"human, plasma, po, 8 mg, plasma, Week 4, ROW, Mid 8 mg once daily oral, n = 5, read-out: Cmax, Geometric mean",75.8 ng/mL
same,Cmax,"human, plasma, po, 8 mg, plasma, Week 4, ROW, Mid 8 mg once daily oral, n = 5, read-out: Cmax, mean",77.8 ng/mL
same,Tmax,"human, plasma, po, 8 mg, plasma, Week 4, ROW, Mid 8 mg once daily oral, n = 5, read-out: tmax, median",3.55 h
